Assay results from patent publication US5453369A, “Enzyme for producing novel cyclooisomaltooligosaccharides” (Kikkoman Corporation, priority 1992, dated 1995).

Key:
[1] = discoloration / decomposition temperature (melting point measuring instrument); type: physicochemical; details: definite melting points could not be determined
Excerpt: 3. The definite melting points of the present compounds could not be determined in a melting point measuring instrument manufactured by Yanagimoto Co., Ltd. Their discoloration temperature ranges together with decomposition temperatures are as follows: […]

[2] = test system: Glucodextranase, i.e. exo-type dextranase; assay: enzymatic hydrolysis with glucodextranase (exo-type dextranase); type: biochemical; details: 1% solution; FIG. 2
Excerpt: 10. Glucodextranase, i.e. exo-type dextranase, was allowed to act on the present compounds (1% solution), but they were not hydrolyzed at all as shown in FIG. 2.

Row | Compound | discoloration temperature ranges together with decomposition temperatures [1] | hydrolysis by glucodextranase [2]
1 | O[C@@H]1[C@@H](O)[C@H]2OC[C@H]3O[C@H](OC[C@H]4O[C@H](OC[C@H]5O[C@H](OC[C@H]6O[C@H](OC[C@H]7O[C@H](OC[C@H]8O[C@H](OC[C@H]9O[C@H](OC[C@H]%10O[C@H](OC[C@@H](O2)[C@H]1O)[C@H](O)[C@@H](O)[C@@H]%10O)[C@H](O)[C@@H](O)[C@@H]9O)[C@H](O)[C@@H](O)[C@@H]8O)[C@H](O)[C@@H](O)[C@@H]7O)[C@H](O)[C@@H](O)[C@@H]6O)[C@H](O)[C@@H](O)[C@@H]5O)[C@H](O)[C@@H](O)[C@@H]4O)[C@H](O)[C@@H](O)[C@@H]3O [Cycloisomaltononaose, cycloisomaltononaose] | 239-242 °C | 
2 | O[C@@H]1[C@@H](O)[C@H]2OC[C@H]3O[C@H](OC[C@H]4O[C@H](OC[C@H]5O[C@H](OC[C@H]6O[C@H](OC[C@H]7O[C@H](OC[C@H]8O[C@H](OC[C@@H](O2)[C@H]1O)[C@H](O)[C@@H](O)[C@@H]8O)[C@H](O)[C@@H](O)[C@@H]7O)[C@H](O)[C@@H](O)[C@@H]6O)[C@H](O)[C@@H](O)[C@@H]5O)[C@H](O)[C@@H](O)[C@@H]4O)[C@H](O)[C@@H](O)[C@@H]3O [Cycloisomaltoheptaose, cycloisomaltoheptaose] | 234-238 °C | 
3 | OC[C@H]1O[C@H](OC[C@H]2O[C@H](OC[C@H]3O[C@H](OC[C@H]4O[C@H](OC[C@H]5O[C@H](OC[C@H]6OC(O)[C@H](O)[C@@H](O)[C@@H]6O)[C@H](O)[C@@H](O)[C@@H]5O)[C@H](O)[C@@H](O)[C@@H]4O)[C@H](O)[C@@H](O)[C@@H]3O)[C@H](O)[C@@H](O)[C@@H]2O)[C@H](O)[C@@H](O)[C@@H]1O (some centres unmarked) [isomaltohexaose] |  | completely hydrolyzed
4 | OC[C@H]1O[C@H](OC[C@H]2O[C@H](OC[C@H]3O[C@H](OC[C@H]4O[C@H](OC[C@H]5O[C@H](OC[C@H]6O[C@H](OC[C@H]7OC(O)[C@H](O)[C@@H](O)[C@@H]7O)[C@H](O)[C@@H](O)[C@@H]6O)[C@H](O)[C@@H](O)[C@@H]5O)[C@H](O)[C@@H](O)[C@@H]4O)[C@H](O)[C@@H](O)[C@@H]3O)[C@H](O)[C@@H](O)[C@@H]2O)[C@H](O)[C@@H](O)[C@@H]1O (some centres unmarked) [isomaltoheptaose] |  | completely hydrolyzed
5 | O[C@@H]1[C@@H](O)[C@H]2OC[C@H]3O[C@H](OC[C@H]4O[C@H](OC[C@H]5O[C@H](OC[C@H]6O[C@H](OC[C@H]7O[C@H](OC[C@H]8O[C@H](OC[C@H]9O[C@H](OC[C@@H](O2)[C@H]1O)[C@H](O)[C@@H](O)[C@@H]9O)[C@H](O)[C@@H](O)[C@@H]8O)[C@H](O)[C@@H](O)[C@@H]7O)[C@H](O)[C@@H](O)[C@@H]6O)[C@H](O)[C@@H](O)[C@@H]5O)[C@H](O)[C@@H](O)[C@@H]4O)[C@H](O)[C@@H](O)[C@@H]3O [Cycloisomaltooctaose, cycloisomaltooctaose] | 238-241 °C | 
